The results in this text go back to publication PMC9234671, “Molecular determinants of αVβ5 localization in flat clathrin lattices – role of αVβ5 in cell adhesion and proliferation” (Journal of Cell Science, 2022).

The subject of experiment [1] is integrin β5 localization in PA-JEB/β4 keratinocytes. Briefly: Immunofluorescence: integrin β5 clustering in FAs/FCLs, PA-JEB/β4. Format: cell-based, human. From the text:
Fig. 3. Serine 759 and 762 are involved in regulating the localization of integrin β5. (A–C) Integrin β5 containing S759/762E or S759/762A mutations (A) were expressed in β5-deficient PA-JEB/β4 keratinocytes and the subcellular distribution of β5 was compared to β5-deficient keratinocytes expressing wild-type (WT) β5. Merged images show integrin β5 (green), vinculin (B) or clathrin (C) (red), actin (blue) and the cell nuclei (cyan). (D,E) Analysis of wild-type versus mutant integrin β5 clustering in FAs or FCLs. (F–I) PA-JEB/β4 keratinocytes were grown in 10% FCS-supplemented DMEM culture medium overnight and then treated with 5 nM calyculin A (Cal.A) or DMSO (vehicle control) for 30 min prior to fixation. Merged images show integrin β5 (green), vinculin (F) or clathrin (H) (red), actin (blue) and the cell nuclei (cyan), quantifications of β5 clustering in FAs or FCLs are shown in G,I. (J,K) Analysis of integrin β5 clustering in FAs or FCLs in PA-JEB keratinocytes after treatment with Cal.A. Representative confocal microscopy images are shown in Fig. S3. Scale bars: 20 μm. Data were obtained from three independent experiments. Total cells analyzed per condition: 109 (WT), 116 (S>E), 103 (S>A) (D), 81 (WT), 77 (S>E), 101 (S>A) (E), 126 and 123 (G), 111 and 101 (I), 106 and 102 (J), 115 and 109 (K). ****P<0.0001 (Mann–Whitney U-test). Box plots range from the 25th to 75th percentile; central line indicates the median; whiskers show smallest to largest value.
PA-JEB/β4 keratinocytes were seeded on glass coverslips and cultured in complete KGM medium for 24 h, and then treated with DMEM plus 10% FCS for 24 h. Other cell lines were seeded on glass coverslips and cultured in DMEM plus 10% FCS. Cells were fixed with 2% paraformaldehyde (PFA) for 10 min, permeabilized with 0.2% Triton X-100 for 5 min, and blocked with PBS containing 2% bovine serum albumin (BSA; Sigma) for at least 30 min. Next, cells were incubated with the primary antibodies for 1 h at room temperature. Cells were washed three times before incubation with the secondary antibodies for 1 h. Additionally, nuclei were stained with DAPI, and filamentous actin was visualized using Alexa Fluor 488 or 647-conjugated phalloidin (Invitrogen). After three washing steps with PBS, the coverslips were mounted onto glass slides in Mowiol. Images were obtained using a Leica TCS SP5 confocal microscope with a 63× (NA 1.4) oil objective.
Image analysis was performed using Fiji (ImageJ) ([Schindelin et al., 2012]; [Schneider et al., 2012]). To quantify integrin clustering in FAs (based on vinculin staining) versus FCLs (clathrin staining), background was subtracted in both channels using a bilateral filter and the region of interest (ROI) was selected at the cell periphery. Colocalization of integrin clusters and FAs or FCLs was determined using the Image Calculator (command ‘multiply’) on both channels and calculating the area of overlapping clusters as a percentage of the total integrin cluster area per cell using the Analyze Particle function.

Experiment [2] relates to phosphorylated MLC in PA-JEB/β4 keratinocytes. Nature of the experiment: Western blot: cell tension (phosphorylated myosin light chain). The note with it: nocodazole. The class given is cell-based, human. Here is the method: Proteins were separated by electrophoresis using a Bolt Novex 4–12% gradient Bis-Tris gels (Invitrogen) or 15% SDS-PAGE gels (made in-house), transferred to Immobilon-P transfer membranes (Millipore Corp) and blocked for at least 30 min in 2% BSA in TBST buffer (10 mM Tris-HCl pH 7.5, 150 mM NaCl and 0.3% Tween-20). Primary antibody (diluted 1:1000 in 2% BSA in TBST buffer) incubation took place overnight at 4°C. After washing twice with TBST and twice with TBS, blots were incubated for 1 h hour at room temperature with horseradish peroxidase-conjugated goat anti-mouse-IgG or goat anti-rabbit-IgG (diluted 1:3000 in 2% BSA in TBST buffer). After subsequent washing steps, the bound antibodies were detected by enhanced chemiluminescence using SuperSignal™ West Dura Extended Duration Substrate (ThermoFisher) or Clarity™ Western ECL Substrate (Bio-Rad) as described by the manufacturer. Signal intensities were quantified using ImageJ.
Fig. S4. (A) Representative western blots of phosphorylated myosin light chain (MLC) and GAPDH in PA-JEB/β4 keratinocytes treated with DMSO versus Nocodazole. […]
μm. Quantifications of β5 or β5 mutants clustering in FAs are shown in (C-E). […] Total cells analyzed per condition: 90 (WT, DMSO), 111 (WT, Noco.) (C), 40 (S>E, DMSO), 80 (S>E, Noco.) (D), 65 (S>A, DMSO), 82 (S>A, Noco.) (E). […]
Background: In western blotting, separated proteins are transferred to a membrane and probed.

SMILES strings stand for the structures.

Take `COC(=O)Nc1nc2ccc(C(=O)c3cccs3)cc2[nH]1` [nocodazole]: the “localization of β5 in FCLs” value in experiment [1] (nocodazole) is on record as “inhibits the localization of β5 in FCLs”. Also, the “localization of β5 within FAs and FCLs” value in experiment [1] (nocodazole versus DMSO, three independent experiments) is given as “significant shift in the localization of β5 from FCLs to FAs”. For the same molecule, the “localization of phospho-inhibitory β5 mutant” value in experiment [1] (nocodazole, β5-deficient keratinocytes expressing β5-S759/762A) was “neither of their localizations were altered”. The “localization of phospho-mimetic β5 mutant” value in experiment [1] (nocodazole, β5-deficient keratinocytes expressing β5-S759/762E) was “neither of their localizations were altered”. Moreover, the cell tension entry in experiment [2] was “increased cell tension”.
